The source of these data is PubChem BioAssay (NCI).

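Interpolation was linear, between the two tested concentrations surrounding the appropriate level; five concentrations were tested over 48 hours in 96-well plates. GI50 is the concentration that inhibits growth by half. TGI: concentration producing complete growth inhibition.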 Some results are limits rather than exact numbers.

Among the test systems are OVCAR-3 ovarian; CAKI-1 renal; CCRF-CEM leukemia; MOLT-4 leukemia; SF-539 CNS; RXF 393 renal; HL-60(TB) leukemia; SR leukemia; MALME-3M melanoma; NCI/ADR-RES ovarian.
Common to all, as to test: NCI tumour cell line growth inhibition, 48 h

As to `O=C(CN1CCCCC1)N1CCc2c([nH]c3ccccc23)C1c1cccnc1` (centres undefined), the TGI in the test on OVCAR-3 ovarian, with CAKI-1 renal, in the test with CCRF-CEM leukemia, in the test with MOLT-4 leukemia, in the test on SF-539 CNS and in the test with RXF 393 renal was above 100 µM throughout. In the test on HL-60(TB) leukemia, this compound registered a TGI above 100 µM.
Turning to `Cc1cn2c(/C=C3/C(=O)Nc4ccccc43)c(-c3ccc(Cl)cc3)nc2s1`, the GI50 with OVCAR-3 ovarian is 9.82 µM; in the test with CAKI-1 renal, 12.1 µM; in the test on CCRF-CEM leukemia, 17.6 µM; in the test on MOLT-4 leukemia, 16.9 µM; in the test with SF-539 CNS, 5.8 µM; in the test on RXF 393 renal, 3.72 µM. Moreover, in the test on SR leukemia, the GI50 was 11.5 µM. The TGI is 17.9 µM with OVCAR-3 ovarian; 25.5 µM in the test with CAKI-1 renal; above 50 µM with CCRF-CEM leukemia; 47.4 µM in the test on MOLT-4 leukemia; 11.9 µM in the test with SF-539 CNS; 12.9 µM in the test on RXF 393 renal. In the test with SR leukemia, the TGI turned out to be 39.8 µM.
For `CN=NN(C)C(=O)NC`, the TGI in the test with OVCAR-3 ovarian, in the test on CAKI-1 renal, in the test on CCRF-CEM leukemia, in the test with MOLT-4 leukemia, in the test with SF-539 CNS and with MALME-3M melanoma was above 100 µM throughout. In addition, the TGI with RXF 393 renal, with SR leukemia and with HL-60(TB) leukemia was above 100 µM in each case.
`CCOC(=O)C1N(S(=O)(=O)c2ccc(C)cc2)CCC12C(c1ccc(OC)cc1)NC1CCCCC12` (centres undefined): the TGI with OVCAR-3 ovarian, in the test with CAKI-1 renal, in the test with CCRF-CEM leukemia, in the test with SF-539 CNS, in the test on MALME-3M melanoma and with RXF 393 renal was above 100 µM in each case. The TGI with HL-60(TB) leukemia is above 100 µM.
For `CC(=O)OCC1OC([S-])C(OC(C)=O)C(OC(C)=O)C1OC(C)=O.CC[PH+](CC)CC.CC[PH+](CC)CC.[Au].[Au]` (centres undefined), the GI50 was 0.376 µM in the test with OVCAR-3 ovarian; 0.292 µM with CAKI-1 renal; 0.0748 µM with CCRF-CEM leukemia; 0.163 µM in the test on MOLT-4 leukemia; 0.18 µM with SF-539 CNS; 0.137 µM in the test with MALME-3M melanoma. In the test with RXF 393 renal, the GI50 is 0.0434 µM. The TGI in the test on OVCAR-3 ovarian is 1.19 µM; in the test with CAKI-1 renal it was 0.987 µM; in the test with CCRF-CEM leukemia, 0.277 µM; in the test on MOLT-4 leukemia it was 0.52 µM; with SF-539 CNS, 0.624 µM; in the test on MALME-3M melanoma it was 0.32 µM. Further, the figures for the TGI in the test on RXF 393 renal and with HL-60(TB) leukemia were 0.197 µM and 0.0214 µM, respectively.
Turning to `COc1ccccc1NC(=O)C1=C(C)NC(C)=C(C(=O)Nc2ccccc2OC)C1c1ccc([N+](=O)[O-])cc1`, the TGI in the test on OVCAR-3 ovarian, with CAKI-1 renal, with CCRF-CEM leukemia, in the test with MOLT-4 leukemia, with SF-539 CNS and in the test on MALME-3M melanoma was above 100 µM throughout. Moreover, the TGI with RXF 393 renal, in the test with SR leukemia and in the test with HL-60(TB) leukemia was above 100 µM in each case.
For the compound `O=C(/C=C/c1ccccc1)/C=C/c1ccccc1`, the TGI with OVCAR-3 ovarian was 51.3 µM; in the test with CAKI-1 renal it was above 100 µM; in the test on CCRF-CEM leukemia it was above 100 µM; in the test with MOLT-4 leukemia, 86.5 µM; in the test on SF-539 CNS, 45 µM; with MALME-3M melanoma, 57.7 µM. The TGI in the test on RXF 393 renal was above 100 µM; in the test with SR leukemia, 67.1 µM; with HL-60(TB) leukemia, 78.8 µM.
As to `O=C1CSC(Cc2nc3ccccc3[nH]2)=N1`, the TGI in the test on OVCAR-3 ovarian was 31.6 µM; in the test on CAKI-1 renal it was 31.4 µM; in the test on CCRF-CEM leukemia, above 94 µM; in the test with MOLT-4 leukemia it was above 100 µM; in the test on SF-539 CNS, 43.1 µM; with MALME-3M melanoma, 18.4 µM. The TGI with RXF 393 renal was determined as 33.1 µM; with SR leukemia it was 25.6 µM; in the test with HL-60(TB) leukemia, 97.5 µM.
Turning to `CC1=C(C(=O)Nc2c(C)cccc2C)C(c2ccccc2Cl)C(C(=O)Nc2c(C)cccc2C)=C(C)N1`, the TGI with OVCAR-3 ovarian, in the test on CAKI-1 renal, with CCRF-CEM leukemia, in the test on MOLT-4 leukemia, with SF-539 CNS and in the test with MALME-3M melanoma was above 100 µM each time. Moreover, the TGI in the test with RXF 393 renal and in the test on HL-60(TB) leukemia was above 100 µM in each case.
`O=S(O)CCCCSSCc1ccccc1CSSCCCCS(=O)O`: the TGI with OVCAR-3 ovarian amounted to 25.2 µM; in the test with CAKI-1 renal it was 81.8 µM; with CCRF-CEM leukemia it was 42.5 µM; in the test with MOLT-4 leukemia it was 14.5 µM; in the test with SF-539 CNS, 64.2 µM; in the test with MALME-3M melanoma it was 28.5 µM. Further, the TGI in the test on RXF 393 renal is 22.8 µM; in the test with HL-60(TB) leukemia it was 36.2 µM.
As for `CC(C)(C)N1CC2(CCCCC2)C1=O`, the TGI in the test with OVCAR-3 ovarian, with CAKI-1 renal, in the test with CCRF-CEM leukemia, in the test with MOLT-4 leukemia, with SF-539 CNS and with MALME-3M melanoma was above 100 µM in each case. The TGI in the test with RXF 393 renal, in the test with SR leukemia and in the test with HL-60(TB) leukemia was above 100 µM each time.
Consider `Cc1[nH][nH]c(=O)c1C=Nc1ccc(-c2nc3ccccc3[nH]2)cc1`, for which the GI50 in the test on OVCAR-3 ovarian was 14.9 µM; with CAKI-1 renal it was 19.1 µM; in the test with CCRF-CEM leukemia, 0.066 µM; with MOLT-4 leukemia, 52 µM; in the test with SF-539 CNS, 22.2 µM; in the test with RXF 393 renal, 11.1 µM. For the same compound, the GI50 in the test with SR leukemia is 39.7 µM; in the test with HL-60(TB) leukemia it was 22.6 µM. Besides, the TGI with OVCAR-3 ovarian was 36 µM; with CAKI-1 renal it was 51.2 µM; in the test with CCRF-CEM leukemia it was above 100 µM; in the test on MOLT-4 leukemia, above 100 µM; with SF-539 CNS, 41.6 µM; with RXF 393 renal, 46.6 µM. Besides, the TGI in the test with SR leukemia is 97.1 µM; with HL-60(TB) leukemia it was above 100 µM.
Regarding `CCCCCc1c(C)[nH]c(/C=C2\N=C(c3ccc[nH]3)C=C2CC)c1C`, the GI50 in the test on OVCAR-3 ovarian was 0.0199 µM; in the test with CAKI-1 renal, 0.0191 µM; with MOLT-4 leukemia it was below 0.01 µM; in the test with NCI/ADR-RES ovarian, 0.0139 µM; with SF-539 CNS, 0.0153 µM; in the test with MALME-3M melanoma it was 0.0333 µM. In addition, in the test with HL-60(TB) leukemia, the GI50 was 0.0151 µM. Besides, the TGI in the test with OVCAR-3 ovarian was determined as 0.103 µM; with CAKI-1 renal, 0.214 µM; with MOLT-4 leukemia, 0.108 µM; in the test with NCI/ADR-RES ovarian, 0.124 µM; in the test on SF-539 CNS, 0.172 µM; in the test on MALME-3M melanoma it was 0.187 µM. Besides, in the test on HL-60(TB) leukemia, the TGI was found to be 0.0814 µM.
